“Also recorded” adds a separate entry of the source.
Tests used:
[1] = biological target: T1, hMAO-A (Homo sapiens, UniProt P21397); assay: MAO-A inhibition assay, fluorometric (Amplex Red / horseradish peroxidase-coupled); format: biochemical; conditions: read-out: MAO-A % Inhibition; for inhibition at 1000 µM: 10^−3 M; for inhibition at 100 µM: 10^−4 M
T1 construct: purchased Sigma-Aldrich (Steinheim, Germany)
T1 sequence (P21397 1-527): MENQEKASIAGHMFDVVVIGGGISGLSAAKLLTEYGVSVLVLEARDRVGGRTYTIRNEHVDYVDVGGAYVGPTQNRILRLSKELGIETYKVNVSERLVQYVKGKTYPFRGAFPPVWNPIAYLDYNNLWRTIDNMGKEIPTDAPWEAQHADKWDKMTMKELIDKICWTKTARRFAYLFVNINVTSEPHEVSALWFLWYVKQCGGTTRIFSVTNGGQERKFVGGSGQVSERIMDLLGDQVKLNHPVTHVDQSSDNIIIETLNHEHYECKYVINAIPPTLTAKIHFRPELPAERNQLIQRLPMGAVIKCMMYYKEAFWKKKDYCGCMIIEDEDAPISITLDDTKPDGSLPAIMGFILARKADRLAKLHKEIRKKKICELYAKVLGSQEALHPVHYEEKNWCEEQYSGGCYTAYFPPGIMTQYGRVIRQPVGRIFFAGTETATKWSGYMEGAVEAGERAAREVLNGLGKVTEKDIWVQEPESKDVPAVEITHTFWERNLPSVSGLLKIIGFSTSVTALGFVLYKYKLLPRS
Procedure: A Biotek Precision XS robotic system (USA) was used for all pipetting operations. Measurements were performed with the use of BioTek-Synergy H1 microplate reader (USA) based upon the fluorescence generated (excitation, 535 nm, emission, 587 nm) over a 30 min period, in which the fluorescence increased linearly.
Enzymatic assay was performed according to recent method pronounced by our research group[17]^,[20–22]. Control, blank and all concentrations of obtained compounds were tested in quadruplicate and inhibition percent was calculated with following equation: % Inhibition=(FCt2 − FCt1) − (FIt2 − FIt1)/FCt2 − FCt1 × 100
FCt2: Fluorescence of a control well measured at t2 time, FCt1: Fluorescence of a control well measured at […]: Fluorescence of an inhibitor well measured at t2 time, FIt1: Fluorescence of an inhibitor well measured at t1 time,
The IC50 values were calculated using a dose-response curve achieved by plotting the percentage inhibition versus the log concentration using GraphPad ‘PRISM’ software (version 5.0).
All the obtained benzylamine-sulphonamide derivatives 4a–4u were investigated for their inhibitory activity against MAO isoforms using a previously described in vitro fluorometric method, which is based on the detection of H2O2 in a horseradish peroxidase-coupled reaction using 10-acetyl-3,7-dihydroxyphenoxazine (Amplex Red reagent)[17]^,[20–22].
The assay was carried out in two steps. […].

[2] = tested on: NIH/3T3 mouse embryonic fibroblast cell line; assay: Cytotoxicity MTT assay; format: cell-based; conditions: NIH3T3 cells
Procedure: (§1) The NIH/3T3 mouse embryonic fibroblast cell line (ATCC®CRL-1658 ™, London, UK) was used for cytotoxicity assays. The incubation period of NIH/3T3 cells was based on the supplier's recommendation. NIH/3T3 cells were seeded at 1 × 10^4 cells into each well of 96-well plates. MTT assay was carried out in accordance with the standards previously described manner[23]^,[24]. The compounds were tested between 1 and 0.000316 mM concentrations.

[3] = Cytotoxicity MTT assay; format: cell-based, mouse; conditions: mouse, NIH/3T3 mouse embryonic fibroblast cells, read-out: IC50 NIH/3T3 cell line
Procedure: as §1

[4] = biological target: T2, hMAO-B (Homo sapiens, UniProt P27338); assay: Enzyme kinetic studies (Lineweaver-Burk plots, secondary plot); format: biochemical; conditions: for type of inhibition: Lineweaver-Burk plot; for Ki: substrate tyramine, secondary plot, read-out: Ki, steady-state inhibition constant
T2 construct: purchased Sigma-Aldrich (Steinheim, Germany)
T2 sequence (P27338 1-520): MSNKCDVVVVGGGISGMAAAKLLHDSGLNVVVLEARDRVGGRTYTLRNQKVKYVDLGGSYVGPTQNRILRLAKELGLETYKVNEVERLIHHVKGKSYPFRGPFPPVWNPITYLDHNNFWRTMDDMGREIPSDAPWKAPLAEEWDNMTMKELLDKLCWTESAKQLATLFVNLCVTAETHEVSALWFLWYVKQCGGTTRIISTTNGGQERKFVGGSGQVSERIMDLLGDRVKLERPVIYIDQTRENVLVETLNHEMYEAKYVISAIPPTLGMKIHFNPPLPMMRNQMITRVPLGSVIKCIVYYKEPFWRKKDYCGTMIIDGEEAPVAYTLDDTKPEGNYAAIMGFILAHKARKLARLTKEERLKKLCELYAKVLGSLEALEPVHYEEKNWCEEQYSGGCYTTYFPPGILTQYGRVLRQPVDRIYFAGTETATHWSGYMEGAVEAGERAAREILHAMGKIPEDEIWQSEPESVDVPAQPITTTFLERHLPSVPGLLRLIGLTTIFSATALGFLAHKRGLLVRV
Procedure: The same materials were used in the MAO inhibition assay. […] All processes were evaluated in quadruplicate. The results were analysed as Lineweaver–Burk plots by means of Microsoft Office Excel 2013. The […] of the Lineweaver–Burk plots were replotted versus the inhibitor concentration, and the Ki values were determined from the x-axis intercept as −Ki.
Enzyme kinetics studies were performed to determine the mechanism of hMAO-B inhibition by using a procedure similar to that of the MAO inhibition assay. […] In order to estimate the type of inhibition of these compounds, linear Lineweaver-Burk graphs were used. Substrate velocity curves in the absence and presence of compounds 4i and 4t were recorded. […] In each case, the initial velocity measurements were obtained at different substrate (tyramine) concentrations ranging from 20 μM to 0.625 μM.
The type of inhibition can be determined as either reversible or irreversible by using the Lineweaver-Burk plots. The reversible inhibition type can be classified as mixed-type, uncompetitive, competitive, or non-competitive[17]^,[20–22]. […] Competitive inhibition is seen if the lines intersect on the y-axis, and the slopes and x-intercepts are different. On the contrary, non-competitive inhibition has the opposite result: the plotted lines have the same x-intercept but there are diverse slopes and y-intercepts.

[5] = biological target: T2, hMAO-B; assay: MAO-B inhibition assay, fluorometric (Amplex Red / horseradish peroxidase-coupled); format: biochemical; conditions: for inhibition at 1000 µM: 10^−3 M; for inhibition at 100 µM: 10^−4 M; for inhibition at 10 µM: 10^−5 M; for inhibition at 1 µM: 10^−6 M; for inhibition at 0.1 µM: 10^−7 M; for inhibition at 0.01 µM: 10^−8 M; for inhibition at 0.001 µM: 10^−9 M; for IC50: Table 2, mean ± SD, read-out: IC50 against MAO-B;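 as to all read-outs here: fluorescence read at Ex 535 nm and Em 587 nm over 30 min, linear phase, inhibition relative to uninhibited control wells, IC50 from log concentration–response curves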
Text: FCt2: Fluorescence of a control well measured at t2 time, FCt1: Fluorescence of a control well measured at t2 time, FIt2: Fluorescence of an inhibitor well measured at t2 time, FIt1: Fluorescence of an inhibitor well measured at t1 time,

[6] = tested on: MAO-B; design: method as in PMID 27028260; conditions: read-out: IC50 against MAO-B; cited from earlier work

Cc1ccc(CN(C(=O)CSc2nc3cc(Cl)ccc3s2)c2ccc(S(N)(=O)=O)cc2)cc1 [Compound 4t, 2-((5-Chlorobenzothiazol-2-yl)thio)-N-(4-methylbenzyl)-N-(4-sulfamoylphenyl)acetamide]
inhibition at 1000 µM [1]: 52.6 ± 0.987%
inhibition at 100 µM [1]: 38.3 ± 0.503%
cytotoxicity (in words) [2]: non-toxic; also recorded: non-cytotoxic at their effective concentrations
IC50 [3]: > 1000 µM
type of inhibition [4]: reversible and non-competitive
Ki [4]: 0.055 µM
melting point: 109 to 111 °C
inhibition at 1000 µM [5]: 92.6 ± 1.13%
inhibition at 100 µM [5]: 88.6 ± 1.2%
inhibition at 10 µM [5]: 80.5 ± 1.16%
inhibition at 1 µM [5]: 74.7 ± 1.01%
inhibition at 0.1 µM [5]: 60.8 ± 1.16%
inhibition at 0.01 µM [5]: 36.1 ± 0.862%
inhibition at 0.001 µM [5]: 21 ± 0.594%
IC50 [5]: 0.065 ± 0.002 µM

NS(=O)(=O)c1ccc(N(Cc2ccccc2)C(=O)CSc2nc3cc(Cl)ccc3s2)cc1 [Compound 4i, N-Benzyl-2-((5-chlorobenzothiazol-2-yl)thio)-N-(4-sulfamoylphenyl)acetamide]
inhibition at 1000 µM [1]: 56.3 ± 0.996%
inhibition at 100 µM [1]: 40.5 ± 0.782%
cytotoxicity (in words) [2]: non-toxic; also recorded: non-cytotoxic at their effective concentrations
IC50 [3]: > 1000 µM
type of inhibition [4]: reversible and non-competitive
Ki [4]: 0.036 µM
melting point: 114 to 116 °C
inhibition at 1000 µM [5]: 94.9 ± 1.41%
inhibition at 100 µM [5]: 91.8 ± 1.26%
inhibition at 10 µM [5]: 78.6 ± 1.11%
inhibition at 1 µM [5]: 72.5 ± 1.11%
inhibition at 0.1 µM [5]: 65.2 ± 0.985%
inhibition at 0.01 µM [5]: 46.5 ± 0.892%
inhibition at 0.001 µM [5]: 24.5 ± 0.627%
IC50 [5]: 0.041 ± 0.001 µM

O=C(CSc1nc2cc(Cl)ccc2s1)N(Cc1cccc([N+](=O)[O-])c1)c1ccc(F)cc1 [BB-4h, 2-((5-chlorobenzothiazol-2-yl)thio)-N-(4-fluorophenyl)-N-(3-nitrobenzyl)acetamide]
IC50 [6]: 2.95 ± 0.09 µM
